Residue numbers refer to the chain shown, from its start.
Tests used:
[1] = molecular target: T1, ABCG2 (Homo sapiens, UniProt Q9UNQ0); assay: competition of […]-IAAP photoaffinity labeling in crude membranes; also ATPase stimulation ([…] of maximum at […]); assay type: binding
T1 construct: wild-type ABCG2 in crude membranes of MCF-7 FLV1000 cells
T1 sequence (Q9UNQ0 1-655): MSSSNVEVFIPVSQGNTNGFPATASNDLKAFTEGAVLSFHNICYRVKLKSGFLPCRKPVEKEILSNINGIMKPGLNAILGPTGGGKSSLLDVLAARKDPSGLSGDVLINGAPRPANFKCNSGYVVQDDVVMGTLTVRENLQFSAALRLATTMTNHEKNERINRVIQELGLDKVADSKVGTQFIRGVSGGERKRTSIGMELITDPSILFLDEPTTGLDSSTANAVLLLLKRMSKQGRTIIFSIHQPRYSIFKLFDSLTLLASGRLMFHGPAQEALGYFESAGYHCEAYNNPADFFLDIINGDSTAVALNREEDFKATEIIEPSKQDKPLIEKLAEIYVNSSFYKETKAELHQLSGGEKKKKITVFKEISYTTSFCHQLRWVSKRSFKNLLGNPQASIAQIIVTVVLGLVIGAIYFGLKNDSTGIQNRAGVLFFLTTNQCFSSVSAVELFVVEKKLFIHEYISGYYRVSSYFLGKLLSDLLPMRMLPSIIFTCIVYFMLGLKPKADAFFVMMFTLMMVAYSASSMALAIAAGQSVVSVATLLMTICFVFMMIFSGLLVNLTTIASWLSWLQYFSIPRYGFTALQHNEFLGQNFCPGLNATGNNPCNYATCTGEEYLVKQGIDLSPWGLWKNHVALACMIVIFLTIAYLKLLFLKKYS

[2] = molecular target: T2, ABCG2 (Homo sapiens, UniProt Q9UNQ0, R482G); assay: [3H]-mitoxantrone accumulation in transfected cells ([…]); assay type: cell-based
T2 construct: full-length ABCG2 in transfected HEK293 cells (ABCG2-482-G2)
T2 sequence (Q9UNQ0 1-655 R482G): T1 sequence (Q9UNQ0 1-655) with R482G

IC50 [1]: 1.61 µM
SMILES: C#Cc1cccc(Nc2ncnc3cc4c(cc23)OCCOCCOCCO4)c1 [Icotinib]
[3H]-mitoxantrone accumulation in transfected cells (1.0 and 5.0 μM) [2]: significantly increased intracellular accumulation of [^3H]-MX in both the NCI-H460 and NCI-H460/MX20 cells, as well as the ABCG2-482-R2, ABCG2-482-G2
